What was measured:
[1] = target: T1, recombinant human VDAC1 protein (rhVDAC1) (Homo sapiens, UniProt P21796); assay: Surface plasmon resonance (SPR); format: binding
T1 construct: purchased Atagenix, China
Description: To investigate the interaction of (+)3C‐20 and recombinant human VDAC1 protein (rhVDAC1), SPR experiments were performed. The overall experimental procedures were based on previous reports and had been improved with some modifications.^[ [35] ^] Briefly, 10 µM (+)3C‐20 was printed on the 3D photo‐crosslinking chip via the Biodot AD1520 chip array printer through a C─H covalent bond connection, and DMSO was conducted as a negative control at the same time. Following the vacuum‐dying and photo‐crosslinking reaction of the chip, the surface of the chip was flowed through with different concentrations (10, 40, 160, 640, 2560 nmol L^−1) of rhVDAC1 protein in PBST at 0.5 µL s^−1 for 600 s. Then, the proteins were dissociated from the surface of the chip in Glycine‐HCl (pH 2.0) at 2 µL s^−1 for 360 s. The binding signals (RU) were detected dynamically using Berthold bScreen LB 991. The RU responses of (+)3C‐20 with rhVDAC1 protein were recorded and ranked to determine the interaction intensity level, and the binding curve and affinity data were calculated by the system according to the Langmuir binding model.

VDAC1 = target: T2, VDAC1 (Mus musculus, UniProt Q60932); assay: Cellular thermal shift assay (CETSA) in RAW264.7 cells; format: binding; details: 20 µM, versus DMSO
T2 construct: endogenous in cells; host or cells: RAW264.7
Description: (§1) For CETSA experiments, RAW264.7 cells were incubated with DMSO or (+)3C‐20 (20 µM) in DMEM for 3 h at standard culture conditions. After washed twice with PBS, the cells were collected and divided equally into 12 groups using PBS containing protease and phosphatase inhibitor cocktail. All the samples were heated in a module with pre‐set temperature (37–81 °C) for 3 min, and balanced at 25 °C for another 3 min. Samples were freeze‐thawed with liquid nitrogen three times to completely lyse cells. The 60 µL supernatant containing soluble protein was isolated by centrifugation (13 800 × g, 20 min, 4 °C), mixed with 20 µL laemmli buffer (4 ×), and heated for 10 min at 95 °C. Eventually, the samples were separated by 10% SDS‐PAGE gels for immunoblotting analysis. For ITDRF experiments, the procedures and details were similar to CETSA experiments. In brief, the RAW264.7 cells were seeded in 6‐well plates, incubated with different concentrations of (+)3C‐20, and heated at a designed temperature.

VDAC2 = target: T3, VDAC2 (Mus musculus, UniProt Q60930); assay: as above; format: binding; details: 20 µM
T3 construct: endogenous in cells; host or cells: RAW264.7
T3 sequence (Q60930 1-295): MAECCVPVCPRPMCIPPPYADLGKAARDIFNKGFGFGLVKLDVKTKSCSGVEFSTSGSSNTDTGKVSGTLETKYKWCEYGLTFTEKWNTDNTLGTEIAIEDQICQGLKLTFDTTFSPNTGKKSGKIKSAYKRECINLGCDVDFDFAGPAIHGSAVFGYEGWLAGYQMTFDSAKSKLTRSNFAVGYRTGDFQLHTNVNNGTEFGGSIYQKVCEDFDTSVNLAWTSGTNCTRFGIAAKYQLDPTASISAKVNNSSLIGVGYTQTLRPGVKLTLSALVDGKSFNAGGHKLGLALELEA
Description: as §1

mice = assay: Subacute toxicity, 28 consecutive days of administration; format: in vivo
[2] = target: T4, VDAC1 oligomerization in LPS-primed BMDMs (Mus musculus, UniProt Q60932); assay: VDAC1 cross-linking (oligomerization) assay; format: cell-based; details: DSS cross-linking, immunoblotting
T4 construct: endogenous in cells; host or cells: primary bone marrow-derived macrophages (BMDMs) from C57BL/6J mice
Description: The cells (BMDM, iBMDM, RAW264.7, and HEK293T) treated with (+)3C‐20 were washed twice by PBS and lysed in RIPA. The lysate was incubated for 30 min at 30 °C with the cross‐linking reagent DSS (1 mM), mixed with 4 × laemmli buffer with DTT, subjected to SDS‐PAGE and immunoblotting analyzed with anti‐VDAC1 antibody.

sepsis-induced ALI mice = assay: Sepsis-induced acute lung injury (ALI) model (i.p. LPS); format: in vivo, mouse
Description: For sepsis‐induced ALI model, C57BL/6J mice were randomly divided into five experimental groups (n = 8–9) according to weight, including control group (PBS+Vehicle), vehicle group (LPS+Vehicle), Dexamethasone treated group (LPS+DEX at 5 mg kg^−1), (+)3C‐20 treated group (LPS+3C‐20 at 10 mg kg^−1 or 50 mg kg^−1). All mice were weighed and intraperitoneally administered DEX, (+)3C‐20 (dissolved in vehicle solution) or vehicle (5% DMSO, 20% BASF Kolliphor HS15, 75% Saline) daily for 3 consecutive days with the determined injection volume (10 mL kg^−1). After the third administration, except for the control group, mice were intraperitoneally injected with LPS (10 mg kg^−1, 10 mL kg^−1) dissolved in PBS 2 h after vehicle or compound pretreatment. […]
After mice were sacrificed, the left lung tissue fixed with 4% paraformaldehyde was embedded in paraffin, cut into 5 µm thick sections, and stained with hematoxylin and eosin. The slices were scanned with light microscopy (BX53, Olympus, Japan) to evaluate gross morphology and lung damage and inflammation, then the alveolar cells area of the image obtained was calculated with Image J 1.51 (NIH, USA), and the histopathological lung injury scores were determined as previously reported.^[ [62] ^]

BMDMs = assay: NLRP3 inflammasome-induced pyroptosis, LDH release; format: cell-based, mouse; details: 10 µM, LPS plus ATP, Nigericin or MSU, compared with parent compound (+)3J
Description: According to previous reports,^[ [65] ^] NLRP3 inflammasome was activated in BMDMs primed with LPS (100 ng mL^−1) for 3 h, and the inflammasome was further assembled using ATP (5 mM, A6419, Sigma–Aldrich, USA) for 45 min, or Nigericin ([…], T3092, TargetMol, USA) for 1 h, or Monosodium Urate Crystal (MSU, 600 µg mL^−1, T41242, TargetMol, USA) for 6 h. To investigate the effect of compounds in NLRP3 inflammasome activation, the cells pretreated with compounds were stimulated with LPS for 3 h and followed by stimulation with ATP for another 45 min, or nigericin for another 1 h, or MSU for another 6 h to activate NLRP3 inflammasome.
Cell culture supernatants were collected and centrifuged to remove cell debris at 800 rpm for 5 min. LDH measurement was performed with an LDH cytotoxicity assay kit (C0017, Beyotime, China) according to the manufacture's instructions. Data were plotted normalizing the OD490 value of the model group as 100%.

T1 sequence (P21796 whole entry): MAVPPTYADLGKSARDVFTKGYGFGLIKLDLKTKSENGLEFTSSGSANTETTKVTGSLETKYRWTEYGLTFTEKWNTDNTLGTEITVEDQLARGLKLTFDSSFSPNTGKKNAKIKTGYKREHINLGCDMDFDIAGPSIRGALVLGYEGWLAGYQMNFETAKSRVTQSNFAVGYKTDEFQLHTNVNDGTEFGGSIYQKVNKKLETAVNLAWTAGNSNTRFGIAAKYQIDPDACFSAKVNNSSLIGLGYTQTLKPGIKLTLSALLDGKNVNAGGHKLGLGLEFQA
T4 sequence (Q60932 14-296): as the sequence (P21796 whole entry) above, with T55N, M129V, A160S, I227V counted along it
T2 sequence (Q60932 14-296): as the sequence (P21796 whole entry) above, with T55N, M129V, A160S, I227V counted along it

## O=C(CCc1ccc(C(F)(F)F)cc1)O[C@@H]1C(=O)NCCc2c([nH]c3ccccc23)[C@H]1c1ccc(C(F)(F)F)cc1 [(+)3C-20]
[1]; hVDAC1, printed in picture of Figure 5G
  Kd: 3.95 µM
[1]; rhVDAC1
  Kd: ~3.95 µM
VDAC1
  thermal stabilization of VDAC1 (CETSA): significant thermal stabilization
VDAC2
  thermal stability of VDAC2 (CETSA): did not improve the thermal stability
mice; 50 mg kg^−1, 28 days
  effects on the liver (AST, ALT): no harmful effects
mice; 28 consecutive days of administration, 50 mg/kg
  changes in body weight or relative organ weight: did not observe any harmful changes
[2]
  VDAC1 oligomerization: inhibit VDAC1 oligomerization in a dose‐dependent manner
sepsis-induced ALI mice; i.p. 10 or 50 mg kg^−1, 3 days pretreatment, LPS 10 mg kg^−1 i.p.
  secretion of TNF-α in serum: dose‐dependently decreased
sepsis-induced ALI mice; pretreated at 10 or 50 mg kg^−1, versus vehicle group
  histopathological damage of lung (H&E): less histopathological damage
BMDMs
  NLRP3 inflammasome activators-stimulated cell death (membrane blebbing, LDH release): significantly decreased

From article PMC11672292, “Discovery of Balasubramide Derivative with Tissue‐Specific Anti‐Inflammatory Activity Against Acute Lung Injury by Targeting VDAC1” (Advanced Science, 2024)
